Assay results reported in patent publication US12637435B2, “Nitrogen-containing heterocyclic compound or salt thereof, use thereof, and intermediate thereof” (FUJIFILM Corporation, priority 2020, dated 2026).

Columns and labels:
recombinant human DHODH = biological target: T1, recombinant human DHODH (Homo sapiens, UniProt Q02127); test: DHODH enzyme reaction inhibition test (DCIP-coupled assay); format: biochemical; details: recombinant human DHODH 0.175 μg/mL, DCIP absorbance 600 nm, 50 minutes, pH 8.0; read-out: Enzyme reaction inhibitory effect (IC50)
T1 construct: DHODH, 31-395aa, Human, His tag, E. coli, ATGP1615; His tag; purchased ATGen Co. Ltd. ATGP1615; host or cells: E. coli
T1 sequence (Q02127 31-395): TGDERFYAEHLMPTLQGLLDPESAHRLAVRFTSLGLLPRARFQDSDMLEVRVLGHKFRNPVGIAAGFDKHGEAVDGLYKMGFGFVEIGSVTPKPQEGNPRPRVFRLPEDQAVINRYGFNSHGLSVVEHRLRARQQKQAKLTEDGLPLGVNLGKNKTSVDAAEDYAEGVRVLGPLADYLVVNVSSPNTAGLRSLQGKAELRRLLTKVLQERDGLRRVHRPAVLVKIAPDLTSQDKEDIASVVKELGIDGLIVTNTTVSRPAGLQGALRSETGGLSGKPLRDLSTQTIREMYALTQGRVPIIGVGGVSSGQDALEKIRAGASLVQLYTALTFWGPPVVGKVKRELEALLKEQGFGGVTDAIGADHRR
Experimental: The DHODH enzyme assay was carried out with reference to “Benjamin Bader, Wolfgang Knecht, Markus Fries, and Monika Loffler, Expression, Purification, and Characterization of Histidine-Tagged Rat and Human Flavoenzyme Dihydroorotate Dehydrogenase, Protein Expression and Purification, 1998, 13, 414-422.”
The DHODH activity was evaluated using an enzyme assay system that is coupled with an assay in which a blue coloring agent 2,6-dichlorophenolindophenol (DCIP, available from MP Biomedicals, LLC, MP150118) is quenched. Purified recombinant human DHODH (DHODH, 31-395aa, Human, His tag, E. coli, ATGP1615) was purchased from ATGen Co. Ltd. The enzyme assay was carried out in a 384-well plate using a buffer solution containing 100 mmol/L Hepes (available from Dojindo Laboratories, 342-01375), 400 mmol/L NaCl (available from FUJIFILM Wako Pure Chemical Corporation, 191-01665), 10% Glycerol (available from FUJIFILM Wako Pure Chemical Corporation, 075-00616), 0.05% Triton X-100 (available from Sigma-Aldrich Co., LLC, T8787-100ML), 0.2 mmol/L Ubiquinone-10 (available from FUJIFILM Wako Pure Chemical Corporation, 216-00761), 0.1 mmol/L DHO (L-dihydroorotic acid, available from Sigma-Aldrich Co., LLC, D7128), 0.5% DMSO (dimethylsulfoxide, available from FUJIFILM Wako Pure Chemical Corporation, 047-29353), 0.175 μg/mL DHODH, and 0.12 mmol/L DCIP and having a pH adjusted to 8.0 by adding 5 mol/L potassium hydroxide (available from FUJIFILM Wako Pure Chemical Corporation, 168-21815). A test compound with a predetermined concentration was added using Biomek NX (available from Beckman Coulter Inc.), and the enzyme reaction was started by adding the substrate. The enzyme activity was assessed by measuring the decrease in DCIP absorbance (600 nm) for 50 minutes using an EnVision plate-reading spectrophotometer (available from PerkinElmer, Inc.).
The enzyme reaction inhibition rate at each test compound concentration was determined, and the 50% enzyme reaction inhibition concentration [IC50 (nmol/L)] was calculated using XLfit. Enzyme reaction inhibition rate (%)=(amount of luminescence in test compound-added well)/(amount of luminescence in DMSO-added well)×100
The abbreviations in the table have the following meanings. • A: IC50 value<10 nmol/L • B: 10 nmol/L≤IC50 value<100 nmol/L • C: 100 nmol/L≤IC50 value

[1] = tested on: human myeloid leukemia cell line HL60; test: Cell growth test, HL60 (CellTiter-Glo); format: cell-based; details: HL-60, 72 h, HL60 cells, 3 days, CellTiter-Glo luminescence, read-out: Cell growth inhibitory effect (GI50)
Experimental: The cell growth test was carried out using the human myeloid leukemia cell line HL60 (available from ATCC, CRL-240). As a culture medium of HL60 cells, RPMI 1640 (available from FUJIFILM Wako Pure Chemical Corporation, 189-02025) supplemented with 10% fetal bovine serum (available from Thermo Fisher Scientific, Inc., 10437-028), and 1% penicillin-streptomycin (10,000 U/mL, available from Thermo Fisher Scientific, Inc., 15140-122) was used. HL60 cells were seeded on a 384-well plate (available from Corning Inc., 4588) at a cell density of 1×10^3 cells/20 μL/well. After culturing overnight, 5 μL of the test compound having a predetermined concentration was added, and 3 days later, 25 μL of CellTiter-Glo (registered trademark) Luminescent Cell Viability Assay (available from Promega Corporation, G7573) was added, and then the amount of luminescence was measured using an EnVision plate reader (available from PerkinElmer, Inc.). Since the amount of luminescence is proportional to the intracellular concentration of adenosine triphosphate (ATP), the amount of luminescence was used as an indicator of the number of viable cells. The growth inhibitory concentration for each test compound concentration was calculated by the following expression.
The growth inhibition rate at each test compound concentration was determined, and the 50% growth inhibitory concentration [GI50 (nmol/L)] was calculated using XLfit. Growth inhibition rate (%)=(amount of luminescence in test compound-added well)/(amount of luminescence in DMSO-added well)×100
The abbreviations in the table have the following meanings. • A: GI50 value<100 nmol/L • B: 100 nmol/L≤GI50 value<1,000 nmol/L • C: 1,000 nmol/L≤GI50 value

SMILES	IC50 (recombinant human DHODH) [nM]	GI50 [1] [nM]
CS(=O)(=O)NC(=O)c1cc(C2CC2)cnc1Nc1cccc(-c2ccc(C#N)cc2)c1OCC(F)(F)F [Example 3-36]	< 10	< 100
C[C@H](Oc1c(Nc2ccc(C3CC3)cc2C(=O)O)cncc1C1=CCOCC1)C(F)(F)F [Example 2-6]	< 10	< 100
CCc1c(Nc2ncc(C3CC3)cc2C(=O)NS(C)(=O)=O)cccc1C1CCOCC1 [Example 3-47]	< 10	100 to 1000
CS(=O)(=O)NC(=O)c1cc(C2CC2)cnc1Nc1cccc(C2CCOCC2)c1OCC(F)(F)F [Example 3-34]	< 10	< 100
N#CNC(=O)c1cc(C2CC2)cnc1Nc1cccc(C2CCOCC2)c1OCC(F)(F)F [Example 3-6]	< 10	< 100
C[C@H](Oc1c(Nc2ncc(C3CC3)nc2C(=O)NS(N)(=O)=O)cccc1C1CCOCC1)C(F)(F)F [Example 3-7]	< 10	100 to 1000
CCCc1c(Nc2ncc(C3CC3)nc2C(=O)NS(N)(=O)=O)cccc1C1CCOCC1 [Example 3-26]	< 10	< 100
CS(=O)(=O)NC(=O)c1cc(C2CC2)cnc1Nc1cccc(C2=CCOCC2)c1OCC(F)(F)F [Example 3-24]	< 10	< 100
C[C@H](Oc1c(Nc2ccc(C3CC3)cc2C(=O)O)ccnc1C1=CCOCC1)C(F)(F)F [Example 1-18]	< 10	< 100
N#CNC(=O)c1nc(C2CC2)cnc1Nc1cccc(-c2ccc(C#N)cc2)c1OCC(F)(F)F [Example 3-33]	< 10	< 100
N#Cc1ccc(-c2cccc(Nc3ncc(C4CC4)nc3C(=O)O)c2OCC(F)(F)F)cc1 [Example 2-4]	< 10	< 100
N#Cc1ccc(-c2cccc(Nc3ncc(C4CC4)cc3C(=O)NS(N)(=O)=O)c2OCC(F)(F)F)cc1 [Example 3-37]	< 10	< 100
N#Cc1ccc(-c2cccc(Nc3ncc(C4CC4)nc3C(=O)NS(N)(=O)=O)c2OC(F)F)cc1 [Example 3-52]	10 to 100	100 to 1000
NS(=O)(=O)NC(=O)c1nc(C2CC2)cnc1Nc1cc(F)cc(C2CCOCC2)c1OC(F)F [Example 3-53]	< 10	< 100
Cc1cc(C#N)ccc1-c1cccc(Nc2ncc(C3CC3)nc2C(=O)NS(C)(=O)=O)c1OCC(F)(F)F [Example 3-16]	< 10	< 100
CS(=O)(=O)NC(=O)c1nc(C2CC2)cnc1Nc1cccc(-c2ccc(C#N)cc2)c1OCC(F)(F)F [Example 3-23]	< 10	< 100
C[C@H](Oc1c(Nc2ncc(C3CC3)nc2C(=O)NS(C)(=O)=O)cccc1C1CCOCC1)C(F)(F)F [Example 3-13]	10 to 100	100 to 1000
CCOc1ccc(Nc2ncc(C3CC3)nc2C(=O)NS(C)(=O)=O)c(OCC)c1C1=CCOCC1 [Example 3-58]	< 10	< 100
CCOc1c(Nc2ncc(C3CC3)cc2C(=O)NS(C)(=O)=O)ccc(F)c1C1=CCOCC1 [Example 3-60]	< 10	< 100
N#Cc1ccc(-c2cccc(Nc3ncc(C4CC4)nc3C(=O)O)c2OC(F)F)cc1 [Example 2-11]	< 10	100 to 1000
CCc1cnc(Nc2cccc(C3=CCOCC3)c2OCC(F)(F)F)c(C(=O)NS(C)(=O)=O)n1 [Example 3-66]	< 10	100 to 1000
CCOc1c(C2=CCOCC2)ccc(F)c1Nc1ncc(C2CC2)cc1C(=O)O [Example 2-14]	< 10	100 to 1000

More lines, now with the values ahead:

IC50 (recombinant human DHODH) [nM]	GI50 [1] [nM]	SMILES
≥ 100	≥ 1000	NCc1nc(C2CC2)cnc1Nc1cccc(C2=CCOCC2)c1OCC(F)(F)F [Example 1-17, 3-(aminomethyl)-5-cyclopropyl-N-(3-(3,6-dihydro-2H-pyran-4-yl)-2-(2,2,2-trifluoroethoxy)phenyl)pyrazine-2-amine]
≥ 100	≥ 1000	O=Cc1nc(C2CC2)cnc1Nc1cccc(C2=CCOCC2)c1OCC(F)(F)F [Example 1-14, 6-cyclopropyl-3-((3-(3,6-dihydro-2H-pyran-4-yl)-2-(2,2,2-trifluoroethoxy)phenyl)amino)pyrazine-2-carbaldehyde]
10 to 100	100 to 1000	NNC(=O)c1nc(C2CC2)cnc1Nc1cccc(C2=CCOCC2)c1OCC(F)(F)F [Example 1-8, 6-cyclopropyl-3-((3-(3,6-dihydro-2H-pyran-4-yl)-2-(2,2,2-trifluoroethoxy)phenyl)amino)pyrazine-2-carbohydrazide]
< 10	< 100	C[C@H](Oc1c(Nc2ncc(C3CC3)nc2C(=O)NS(C)(=O)=O)cccc1C1=CCOCC1)C(F)(F)F [Example 3-32]
≥ 100	≥ 1000	CN(C)NC(=O)c1nc(C2CC2)cnc1Nc1cccc(C2=CCOCC2)c1OCC(F)(F)F [Example 1-13, 6-cyclopropyl-3-((3-(3,6-dihydro-2H-pyran-4-yl)-2-(2,2,2-trifluoroethoxy)phenyl)amino)-N,N-dimethylpyrazine-2-carbohydrazide]
10 to 100	100 to 1000	Cc1cnc(Nc2cccc(C3=CCOCC3)c2OCC(F)(F)F)c(C(=O)NS(C)(=O)=O)n1 [Example 3-67]
< 10	100 to 1000	O=c1[nH]c(-c2nc(C3CC3)cnc2Nc2cccc(C3=CCOCC3)c2OCC(F)(F)F)no1 [Example 1-7, 3-(6-cyclopropyl-3-((3-(3,6-dihydro-2H-pyran-4-yl)-2-(2,2,2-trifluoroethoxy)phenyl)amino)pyrazin-2-yl)-1,2,4-oxadiazol-5(4H)-one]
≥ 100	≥ 1000	CS(=O)(=O)NCc1nc(C2CC2)cnc1Nc1cccc(C2=CCOCC2)c1OCC(F)(F)F [Example 1-15, N-((6-cyclopropyl-3-((3-(3,6-dihydro-2H-pyran-4-yl)-2-(2,2,2-trifluoroethoxy)phenyl)amino)pyrazin-2-yl)methyl)methanesulfonamide]
< 10	< 100	FC(F)(F)COc1c(Nc2ncc(C3CC3)nc2-c2nnn[nH]2)cccc1C1=CCOCC1 [Example 1-6]
< 10	< 100	C[C@H](Oc1c(Nc2ncc(C3CC3)nc2C(=O)NS(N)(=O)=O)cccc1C1=CCOCC1)C(F)(F)F [Example 3-27]
